system: factor Xa; assay: Plasma anti-factor Xa activity, rabbit wound-limb deep venous thrombosis forming model; assay type: in vivo; settings: 0.5 h-4 h after administration
Protocol: (§1) Eight were taken as control group and the rest were treated by a striking device. Striking area was a round surface with the diameter of 1.5 cm, the wounding energy was calculated according to Ep=mgh, and the energy of each striking of the iron rod is 7.5 J.
(§2) Specifically: the rabbit was anesthetized by intravenous injection of 3% pentobarbital sodium at ear edge with the dose of 1 ml/kg. The rabbit was kept laying down at right side prostrate position and the left thigh was set on the striking platform. Found the trochanter of the left femur and set the striking head attached to area from the trochanter to the 1.5 cm below. The self-made striking device was used for striking the outer side of the thigh near-end, and the plaster was used for fixing the left limb on the hip/knee-bending area. When the plaster bandage was applied and the right hip was examined to move freely, the rabbit was kept to lay down until solidification. After the model establishment, the animal was allowed to drink water normally and was fed with granular food. No anticoagulant or antibiotic was used.
(§3) Animals were grouped after modeling. The drug was fed according to table 4 via oral gavage, once a day for 7 days continuously.
(§4) At 0.5, 1.0, 2.0, 3.0 and 4.0 h after the first administration, blood was taken from ear central artery. Plasma was separated and aPPT, PT and the anti-factor Xa activity were determined on an automatic coagulation detector.

SMILES | anti-factor Xa activity
COc1ccc(-n2nc(C(N)=O)c3c2C(=O)N(c2ccc(N4CCCCC4=O)cc2)CC3)cc1 [Apixaban] | extremely significant difference

same assay, conditions: plasma, 5 mg/kg i.g., 0.5 h after administration, x ± SD

SMILES | anti-factor Xa activity [IU/ml]
COc1ccc(-n2nc(C(N)=O)c3c2C(=O)N(c2ccc(N4CCCCC4=O)cc2)CC3)cc1 [Apixaban] | 0.16 ± 0.10

same assay, conditions: plasma, 5 mg/kg i.g., 1 h after administration, x ± SD

SMILES | anti-factor Xa activity [IU/ml]
COc1ccc(-n2nc(C(N)=O)c3c2C(=O)N(c2ccc(N4CCCCC4=O)cc2)CC3)cc1 [Apixaban] | 0.26 ± 0.04

same assay, conditions: plasma, 5 mg/kg i.g., 2 h after administration, x ± SD

SMILES | anti-factor Xa activity [IU/ml]
COc1ccc(-n2nc(C(N)=O)c3c2C(=O)N(c2ccc(N4CCCCC4=O)cc2)CC3)cc1 [Apixaban] | 0.25 ± 0.10

same assay, conditions: plasma, 5 mg/kg i.g., 3 h after administration, x ± SD

SMILES | anti-factor Xa activity [IU/ml]
COc1ccc(-n2nc(C(N)=O)c3c2C(=O)N(c2ccc(N4CCCCC4=O)cc2)CC3)cc1 [Apixaban] | 1.22 ± 0.22

same assay, conditions: plasma, 5 mg/kg i.g., 4 h after administration, x ± SD

SMILES | anti-factor Xa activity [IU/ml]
COc1ccc(-n2nc(C(N)=O)c3c2C(=O)N(c2ccc(N4CCCCC4=O)cc2)CC3)cc1 [Apixaban] | 1.12 ± 0.15

system: factor Xa; assay: Anti-coagulation factor Xa activity in vitro (chromogenic substrate assay); assay type: biochemical, rabbit; settings: not given
Protocol: A chromogenic substrate assay was adopted, and plasma anti-Xa activity was determined on a microplate reader according to a kit specification and reference documents.

SMILES | anti-factor Xa activity [IU/ml]
COc1ccc(-n2nc(C(N)=O)c3c2C(=O)N(c2ccc(N4CCCCC4=O)cc2)CC3)cc1 [Apixaban] | 1.07

system: PAF (Platelet activating factor); assay: Plasma PAF content by ELISA, rabbit wound-limb deep venous thrombosis forming model; assay type: in vivo; settings: 1 h after administration; rabbit wound-limb deep venous thrombosis model; *p<0.05, **p<0.01, ***p<0.001 vs model group
Protocol: as §2, with “Eight were taken as control group and the rest were treated by a striking device. […] Specifically:” for “Specifically:”, “Found the trochanter of the left femur and set the striking head attached to area from the trochanter to the 1.5 cm below.” left out, “used. Animals were grouped after modeling. The drug was fed according to table 4 via oral gavage, once a day for 7 days continuously. At 0.5, 1.0, 2.0, 3.0 and 4.0 h after the first administration, blood was taken from ear central artery. Plasma was separated and the content of PAF was determined by ELISA.” for “used.”

SMILES | PAF content (x ± SD) [ng/L]
COc1ccc(-n2nc(C(N)=O)c3c2C(=O)N(c2ccc(N4CCCCC4=O)cc2)CC3)cc1 [Apixaban] | 1543.57 ± 239.95

same assay, conditions: 2 h after administration; rabbit wound-limb deep venous thrombosis model; *p<0.05, **p<0.01, ***p<0.001 vs model group

SMILES | PAF content (x ± SD) [ng/L]
COc1ccc(-n2nc(C(N)=O)c3c2C(=O)N(c2ccc(N4CCCCC4=O)cc2)CC3)cc1 [Apixaban] | 1117.86 ± 231.52

same assay, conditions: 3 h after administration; rabbit wound-limb deep venous thrombosis model; *p<0.05, **p<0.01, ***p<0.001 vs model group

SMILES | PAF content (x ± SD) [ng/L]
COc1ccc(-n2nc(C(N)=O)c3c2C(=O)N(c2ccc(N4CCCCC4=O)cc2)CC3)cc1 [Apixaban] | 1865.71 ± 371.23

same assay, conditions: 4 h after administration

SMILES | PAF content compared to model group
COc1ccc(-n2nc(C(N)=O)c3c2C(=O)N(c2ccc(N4CCCCC4=O)cc2)CC3)cc1 [Apixaban] | extremely significant decrease

system: coagulation function (aPTT); assay: aPTT of coagulation function, rabbit wound-limb deep venous thrombosis forming model; assay type: in vivo; settings: 5 mg/kg i.g., 0.5 h after administration, x ± SD
Protocol: as §1, §2, §3, §4

SMILES | aPPT [s]
COc1ccc(-n2nc(C(N)=O)c3c2C(=O)N(c2ccc(N4CCCCC4=O)cc2)CC3)cc1 [Apixaban] | 19.05 ± 6.17

same assay, conditions: 5 mg/kg i.g., 1 h after administration, x ± SD

SMILES | aPPT [s]
COc1ccc(-n2nc(C(N)=O)c3c2C(=O)N(c2ccc(N4CCCCC4=O)cc2)CC3)cc1 [Apixaban] | 24.26 ± 7.89

same assay, conditions: 5 mg/kg i.g., 2 h after administration, x ± SD

SMILES | aPPT [s]
COc1ccc(-n2nc(C(N)=O)c3c2C(=O)N(c2ccc(N4CCCCC4=O)cc2)CC3)cc1 [Apixaban] | 23.94 ± 5.49

same assay, conditions: 5 mg/kg i.g., 3 h after administration, x ± SD

SMILES | aPPT [s]
COc1ccc(-n2nc(C(N)=O)c3c2C(=O)N(c2ccc(N4CCCCC4=O)cc2)CC3)cc1 [Apixaban] | 31.71 ± 8.53

same assay, conditions: 5 mg/kg i.g., 4 h after administration, x ± SD

SMILES | aPPT [s]
COc1ccc(-n2nc(C(N)=O)c3c2C(=O)N(c2ccc(N4CCCCC4=O)cc2)CC3)cc1 [Apixaban] | 29.21 ± 11.35

same assay, conditions: 1 h after administration

SMILES | aPTT compared with model group
COc1ccc(-n2nc(C(N)=O)c3c2C(=O)N(c2ccc(N4CCCCC4=O)cc2)CC3)cc1 [Apixaban] | no obvious extension
